From ChEMBL document CHEMBL3997784, “Discovery of new nanomolar inhibitors of GPa: Extension of 2-oxo-1,2-dihydropyridinyl-3-yl amide-based GPa inhibitors” (Eur J Med Chem, 2017)
Activity calls are given as the source filed them. No cut-off for these calls is given here.

Key:
[1] = target: Glycogen phosphorylase, muscle form (Oryctolagus cuniculus) (UniProt P00489); assay: Inhibition of rabbit muscle glycogen phosphorylase A assessed as release of inorganic phosphate from glucose-1- phosphate in presence of glycogen at 222 uM after 30 mins by malachite green based assay relative to control
Glycogen phosphorylase, muscle form (Oryctolagus cuniculus), sequence (P00489 whole entry, looked up): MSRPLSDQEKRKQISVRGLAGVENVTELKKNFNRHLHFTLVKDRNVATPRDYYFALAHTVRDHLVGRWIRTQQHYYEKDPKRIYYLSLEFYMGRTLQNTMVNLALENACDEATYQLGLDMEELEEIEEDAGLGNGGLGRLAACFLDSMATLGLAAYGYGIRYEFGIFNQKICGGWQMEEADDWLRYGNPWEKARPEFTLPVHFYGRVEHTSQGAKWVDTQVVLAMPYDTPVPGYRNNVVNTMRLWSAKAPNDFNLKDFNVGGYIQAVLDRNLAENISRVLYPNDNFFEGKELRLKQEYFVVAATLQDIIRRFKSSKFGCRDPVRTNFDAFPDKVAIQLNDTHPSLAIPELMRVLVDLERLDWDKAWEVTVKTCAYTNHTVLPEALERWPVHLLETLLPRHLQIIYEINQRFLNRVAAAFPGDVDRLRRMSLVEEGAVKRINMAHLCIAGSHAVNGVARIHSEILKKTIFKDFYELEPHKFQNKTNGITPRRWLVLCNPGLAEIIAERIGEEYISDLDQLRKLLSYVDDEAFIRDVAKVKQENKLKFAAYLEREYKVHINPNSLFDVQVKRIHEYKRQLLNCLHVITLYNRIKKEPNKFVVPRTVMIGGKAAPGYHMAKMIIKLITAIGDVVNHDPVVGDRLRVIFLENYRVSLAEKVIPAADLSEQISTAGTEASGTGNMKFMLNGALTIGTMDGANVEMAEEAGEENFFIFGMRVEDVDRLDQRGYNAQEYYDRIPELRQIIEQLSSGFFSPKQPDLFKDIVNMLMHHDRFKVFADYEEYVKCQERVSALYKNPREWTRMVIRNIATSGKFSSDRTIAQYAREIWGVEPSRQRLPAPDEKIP

[2] = target: Glycogen phosphorylase, muscle form (Oryctolagus cuniculus) (UniProt P00489); assay: Inhibition of rabbit muscle glycogen phosphorylase A assessed as release of inorganic phosphate from glucose-1- phosphate in presence of glycogen after 30 mins by malachite green based assay
[3] = target: Glycogen phosphorylase, muscle form (Oryctolagus cuniculus) (UniProt P00489); assay: Inhibition of rabbit muscle glycogen phosphorylase A assessed as release of inorganic phosphate from glucose-1- phosphate in presence of glycogen at 2.2 uM after 30 mins by malachite green based assay relative to control
[4] = target: T1, Glycogen phosphorylase, muscle form (Rattus norvegicus) (UniProt P09812); conditions: 22.2 uM
T1 sequence (whole entry): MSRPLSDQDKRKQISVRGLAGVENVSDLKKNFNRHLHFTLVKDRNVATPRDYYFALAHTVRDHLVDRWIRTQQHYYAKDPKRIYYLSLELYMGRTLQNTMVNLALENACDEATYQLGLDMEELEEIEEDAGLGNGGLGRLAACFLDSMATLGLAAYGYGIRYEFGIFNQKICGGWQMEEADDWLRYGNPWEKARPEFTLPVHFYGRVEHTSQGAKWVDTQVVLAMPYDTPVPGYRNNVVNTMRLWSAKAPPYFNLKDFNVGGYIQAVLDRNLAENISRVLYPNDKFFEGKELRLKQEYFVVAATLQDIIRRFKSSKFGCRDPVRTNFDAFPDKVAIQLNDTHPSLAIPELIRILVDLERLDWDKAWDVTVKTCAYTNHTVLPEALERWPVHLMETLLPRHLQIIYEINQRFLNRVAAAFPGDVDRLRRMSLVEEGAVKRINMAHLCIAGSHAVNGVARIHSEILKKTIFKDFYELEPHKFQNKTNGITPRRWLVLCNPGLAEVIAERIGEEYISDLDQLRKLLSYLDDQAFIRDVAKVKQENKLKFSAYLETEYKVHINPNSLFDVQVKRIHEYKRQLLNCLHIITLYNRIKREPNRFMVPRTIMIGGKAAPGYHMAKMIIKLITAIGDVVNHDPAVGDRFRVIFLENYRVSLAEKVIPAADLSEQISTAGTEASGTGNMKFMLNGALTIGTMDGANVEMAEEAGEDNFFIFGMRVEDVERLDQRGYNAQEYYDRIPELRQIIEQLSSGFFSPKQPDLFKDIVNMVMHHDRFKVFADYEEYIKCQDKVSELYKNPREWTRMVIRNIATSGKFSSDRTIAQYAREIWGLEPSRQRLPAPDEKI
Description: Inhibition of rat muscle glycogen phosphorylase A assessed as release of inorganic phosphate from glucose-1- phosphate in presence of glycogen at 22.2 uM after 30 mins by malachite green based assay relative to control

**Q.** How did the inhibition [1] turn out when `O=c1c(NCc2ccccc2)cccn1Cc1ccccc1` was run?
**A.** The inhibition was “inactive”.

**Q.** With `O=C(NCc1ccc(Cl)c(Cl)c1)C1CCCN(C(=O)c2ccccc2)C1=O` (centres undefined) as the compound, how does the inhibition [1] read?
**A.** Its inhibition is 39%.

**Q.** With `O=C(Cn1cccc(NC(=O)c2ccccc2)c1=O)NCCNC(=O)Cn1cccc(NC(=O)c2ccccc2)c1=O` as the compound, how does the inhibition [1] read?
**A.** The inhibition was “inactive”.

**Q.** What does the source list for `O=C(Cn1cccc(NC(=O)Nc2ccc(NC(=O)Nc3cccn(CC(=O)NCc4ccc(Cl)c(Cl)c4)c3=O)cc2)c1=O)NCc1ccc(Cl)c(Cl)c1`?
**A.** IC50 [2]: 230 nM; inhibition [3]: > 85%

**Q.** Which inhibition [1] does the source give for `Cc1ccn(CC(=O)NCc2ccc(Cl)c(Cl)c2)c(=O)c1NCc1ccccc1` here?
**A.** Its inhibition is 38%.

**Q.** Which inhibition [1] does the source give for `CCOC(=O)Cn1cccc(NCc2ccc(CNc3cccn(CC(=O)OCC)c3=O)s2)c1=O` here?
**A.** The inhibition was 29%.

**Q.** For `O=C(NCc1ccccc1)C1CCCN(C(=O)c2ccccc2)C1=O` (centres undefined), which inhibition [1] is on record?
**A.** Its inhibition is “inactive”.

**Q.** With `O=C(Cn1cccc(NCc2ccc(CNc3cccn(CC(=O)NCc4ccc(Cl)c(Cl)c4)c3=O)s2)c1=O)NCc1ccc(Cl)c(Cl)c1` as the compound, how does the IC50 [2] read?
**A.** Its IC50 is 260 nM.

**Q.** And the inhibition [3]?
**A.** Its inhibition is greater than 85%.

**Q.** How did the inhibition [1] turn out when `O=C(Cn1cccc(NCc2ccccc2)c1=O)NCc1cn(Cc2ccccc2)nn1` was run?
**A.** Its inhibition is 60%.

**Q.** With `CCOC(=O)Cn1cccc(NC(=O)Nc2ccc(NC(=O)Nc3cccn(CC(=O)OCC)c3=O)cc2)c1=O` as the compound, how does the IC50 [2] read?
**A.** Its IC50 is 3100 nM.

**Q.** What about the inhibition [1] of the same compound?
**A.** The inhibition was greater than 85%.

**Q.** With `CCCNC(=O)Cn1cccc(NC(=O)Nc2ccc(NC(=O)Nc3cccn(CC(=O)NCCC)c3=O)cc2)c1=O` as the compound, how does the inhibition [4] read?
**A.** Its inhibition is greater than 85%.

**Q.** What about the IC50 [2] of the same compound?
**A.** Its IC50 is 1600 nM.

**Q.** Which IC50 [2] does the source give for `O=c1c(NCc2ccc(Cl)c(Cl)c2)cccn1Cc1ccccc1` here?
**A.** The IC50 was 33000 nM.

**Q.** What about the inhibition [1] of the same compound?
**A.** Its inhibition is greater than 85%.

**Q.** How did the inhibition [1] turn out when `Cn1cccc(NCc2ccc(Cl)c(Cl)c2)c1=O` was run?
**A.** The inhibition was 34%.

**Q.** With `O=C(NCc1ccccc1)C1CCCN(C(=O)c2ccccc2Cl)C1=O` (centres undefined) as the compound, how does the inhibition [1] read?
**A.** Its inhibition is 38%.
